The results in this text go back to patent US20010025105A1, “Certain substituted 1-aryl-3-piperazine-1'-yl propanones” (Molecular Geriatarics Corporation, priority 1997, published 2001).

In test [1] the test system is microtubule cytoskeleton of human CG neuroblastoma cells. Description: Antimicrotubule activity, tubulin immunofluorescence microscopy. The following applies: 2 hr at 37° C., read-out: Concentration where microtubule destabilization occurs. The test is classed as cell-based. The procedure:
The compounds of the invention according to formula I are effective in destabilizing microtubules, thus are useful in treating certain neoplastic diseases. Indirect immunofluorescence microscopy using the monoclonal antibodies to tubulin is used herein to determine the activity of the compounds of this invention in promoting depolymerization of the microtubule cytoskeleton in cultured cells. The following assay was employed.
Cultured human CG neuroblastoma cells were seeded 1:3 from confluent cultures onto sterile 11×22 mm coverslips in 6 well tissue culture plates 16 hr prior to treatment. The following day, the tissue culture medium is removed and the cells are exposed to various concentrations of compounds of this invention in Krebs Ringer Hepes (KRH) buffer containing a final concentration of 0.5% DMSO as carrier. Incubations were performed at 37° C. in a humidified 5% CO2 atmosphere for 2 hr. After incubation, the cells were fixed in 3% TEM grade formaldehyde in PBS for 45 min at room temperature.
To visualize the effects of the compounds of the invention on the microtubule cytoskeleton, the cells were processed for tubulin immunofluorescence. Briefly, the cells were permeabilized in 0.5% Triton-X 100 in PBS for 5 min. The cells were washed 2× with PBS and aldehydes reduced using 0.5 mg/ml NaBH4 in PBS for 5 min. Subsequently, the cells were blocked for 10 min in 1.5% BSA and 1.5% nonfat dry milk in PBS (blocking solution, BS) for 10 min. The cells were then incubated for 30 min at 37° C. with the monoclonal antibody Tu27B which recognizes b-tubulin (dilution 1:20 in BS). Subsequently, the cells were washed 2× in PBS and once in BS. The cells were then incubated for 30 min at 37° C. with sheep antimouse IgG conjugated to FITC. After incubation, the cells were washed 2× in PBS and once in BS and incubated for 30 min at 37° C. with rabbit antisheep IgG conjugated to FITC. The cells were rinsed in PBS, counterstained with Hoechst 33285 in PBS (1 μg/ml), and rinsed in PBS. The coverslips were mounted in 9:1 glycerol:PBS containing 1 mg/ml p-phenylenediamine and sealed with nail polish.
The cells were viewed using a Jenalumar epifluorescence microscope equipped with the proper filters for Fluorescein Isothiocyanate (FITC) excitation and emission. Lack of effect of a compound is evidenced by the presence of an intact microtubule network in interphase cells, or a mitotic spindle in dividing cells. Antineoplastic compounds of the invention at effective doses result in the disappearance of microtubules in both interphase and mitotic cells.

The next test has as its system Candida albicans SRI 523. Description: Agar disc diffusion assay. The test is classed as cell-based. To be noted: 240 ug/disc, about 24 hr at 37° C. The procedure: (§1) The activity of the compounds is determined using the following assay. The compound is dissolved in DMSO at a concentration of 6 mg/ml and then diluted with water to a final concentration of 3 mg/ml in 50% DMSO (% DMSO was shown not to be inhibitory to the test organisms). An aliquot (0.08 ml) of each drug solution was transferred to filter paper discs (12.7 mm diameter, Scmeicherand Schuell) for use in the agar diffusion assay. The concentration of each drug on the filter paper disc was 240 ug/disc. The test organisms included the following: Gram-positive aerobes (Staphylococcus aureus SRI 1323, Streptococcus pneumoniae SRI 1167); Gram-negative aerobe (Proteus vulgaris SRI 180); and the yeast Candida albicans SRI 523. An agar disc diffusion assay was used to evaluate the antimicrobial activity of the test compounds. Briefly, cultures were prepared from 16-20 hr agar slant cultures by inoculating in physiological saline to a turbidity equivalent to a #0.5 McFarland turbidity standard for the bacteria and a #3 McFarland standard for C. albicans. The surface of Mueller-Hinton agar (15×100 mm plates, mm) were evenly inoculated with each standardized culture using a cotton swab. Filter paper discs containing the drug concentration listed above were then placed on the inoculated agar plates along with a disc containing the solvent used to dissolve each drug. The plates were incubated at 37° C. for about 24 hr and the diameters of the zones of inhibition measured with a vernier caliper. Positive control drugs consisted of streptomycin for use with the bacterial strains and 5-fluorocytosine for use with C. albicans. The positive control drugs were assayed as described above for the compounds of the present invention using the same concentration.
(In general: In agar diffusion tests the substance spreads into inoculated agar from a disc or well.)

In the next test the test system is Proteus vulgaris SRI 180. Description: Agar disc diffusion assay. The test is classed as cell-based. The following applies: 240 ug/disc, about 24 hr at 37° C.; 0 = no measurable zone. The procedure: as §1
Test [2] concerns Staphylococcus aureus SRI 1323. In words: Agar disc diffusion assay. The test is classed as cell-based. The following applies: 240 ug/disc, about 24 hr at 37° C. The method, then:
as §1

Test [3] relates to Streptococcus pneumoniae SRI 1167. Description: Agar disc diffusion assay. The test is classed as cell-based. To be noted: 240 ug/disc, about 24 hr at 37° C.; + = zone too large to measure. The procedure:
as §1

For test [4], the system named is TG3 immunoreactivity in OKA treated MSN1a cells. Description: MSN1a cell culture model, ELISA with TG3 antibody, okadaic acid treated cells. The test is classed as cell-based, human. The following applies: Homo sapiens, 1 μM OKA, 2 hrs at 37° C., read-out: IC50 for inhibition of TG3 immunoreactivity in OKA treated MSN1a cells. The method, boiled down: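 Human MSN1a neuroblastoma cells (2×10^4/well) in KRH pH 7.4 were exposed 2 h at 37 °C to 1 μM okadaic acid plus 0–64 μM compound (0.26% DMSO final). Lysates were coated onto ELISA plates and probed with TG3 and an alkaline phosphatase secondary. Absorbance was read at 405 nm with p-nitrophenyl phosphate substrate.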
Background: ELISA stands for enzyme-linked immunosorbent assay.

For test [5], the system named is paired helical filament epitopes in MSN1a cells. In words: Western blot of PHF-1 immunoreactivity in lysates of MSN1a cells. The test is classed as cell-based, human. The following applies: 100 μM chlorpromazine, 2 hours at 37° C. The procedure:
These compounds are effective at micromolar concentrations, with increased potency being evident when cells are treated prior to the addition of okadaic acid. The effective concentrations appear to be in the range at which these drugs are present in the brain following chronic treatment of psychiatric patients (Svendsen, C N, Psychopharnacology, 90, 316-321, 1986). […] The cells were isolated by centrifugation, boiled for 10 minutes and […] protein from the resulting heat stable supernatants were loaded per lane on an SDS-PAGE gel. The gel was electrophoretically transferred to nitrocellulose membrane and then immnunostained with PHF-1. […] The use of the MSN1a cell culture model for screening of novel compounds for therapeutic activity in AD is, therefore, quite warranted.
(In western blotting, separated proteins are transferred to a membrane and probed.)

The test system of test [6] is PHF epitopes in human brain tissue. Description: Retrospective study of autopsy brain tissue of chronically treated patients, direct ELISA using TG3 antibody. The test is classed as in vivo. To be noted: N 51, sum of absorbance readings for 8 dilutions. An excerpt:
In a subsequent study, 51 additional patients were identified and the analysis was repeated as above using the TG3 antibody in an ELISA format.

In test [7] the test system is PHF epitope levels in human brain tissue. Description: Retrospective study of autopsy brain tissue of chronically treated patients, ALZ-EIA method. The test is classed as in vivo. To be noted: frontal (Broadman area 10) and temporal (Broadman area 38) regions, FIGS. 4A and 4B. The procedure:
Frontal and cortical brain tissue specimens obtained at autopsy from patients chronically treated with chlorpromazine were analyzed using the ALZ-EIA method previously described (Ghanbari, H A, et al, JAMA, 263, 2907, 1990). […] The brain tissue (post-mortem) from approximately the same number of (age matched) normal controls and Alzheimer's Disease patients were also analyzed and are presented in these figures as negative and positive controls (for normal and AD, respectively). […] Bick, K L. Raven Press, New York, 1994).

Each structure is given as a SMILES string.

With `Cl.Cl.O=C(CCN1CCN(Cc2ccccc2)CC1)c1ccc([N+](=O)[O-])cc1` [Example 5], the minimal effective concentration in test [1] is on record as 4 µM. In the test on Candida albicans SRI 523, the “Diameter of the zone of inhibition, C. albicans” value came out at 17.6 mm. For the same compound, the “Diameter of the zone of inhibition, P. vulgaris” value with Proteus vulgaris SRI 180 worked out at 17.3 mm. In addition, the “Diameter of the zone of inhibition, S. aureus” value in [2] was 22.8 mm. The “Diameter of the zone of inhibition, S. pneumoniae” value in test [3] is 29.9 mm.
One may read the IC50 as the midpoint of a concentration-inhibition curve. For the compound `CN(C)CCCN1c2ccccc2Sc2ccc(Cl)cc21` [Chlorpromazine, chlorpromazine], the IC50 in test [4] was approximately 70 µM. The “production of paired helical filament epitopes (PHF-1 immunoreactivity, western blot)” value is “markedly inhibit the expression of PHF epitopes” in test [5] (FIG. 3) and “greatly decreased the production of paired helical filament epitopes” in test [5] (FIG. 3, listed as CPZ). In addition, in test [6] (post-mortem frontal brain tissue), the “SIGNAL ± SEM Frontal” value came to 0.12 ± 0.11. Further, the “SIGNAL ± SEM Temporal” value in test [6] (post-mortem temporal brain tissue) is on record as 0.16 ± 0.11. Also, the “PHF epitope levels (ALZ-EIA)” value in [7] is “low PHF epitope levels similar to normal controls”.
